Reference: publication PMC9739695, “Water-Soluble Salts Based on Benzofuroxan Derivatives—Synthesis and Biological Activity” (International Journal of Molecular Sciences, 2022)
Where two headings read alike, the source gives them in different places.

Tests used:
[1] = tested on: barley seeds; assay: Pre-sowing seed treatment, sowing qualities of barley seeds; type: in vivo; conditions: for germination energy / laboratory germination: control 95.2
[2] = tested on: rice seeds; assay: Pre-sowing seed treatment, sowing qualities of rice seeds; type: in vivo; conditions: for germination energy: control 71.4; for laboratory germination: control 95.2
[3] = tested on: Hek 293 (human embryonic kidneys); assay: Cell viability, MTT test, normal cell line; type: cell-based; conditions: read-out: IC50 (concentration causing 50% inhibition of cell population growth)
[4] = Acute toxicity, single intraperitoneal administration; type: in vivo; conditions: male, BDF1 [DBA2 × C57Bl6] hybrid, mouse, in vivo, ip, BDF1 mice, single intraperitoneal administration
Description: (§1) To determine LD50, a curve of increasing toxicity was built with increasing dose, based on which the following parameters were additionally determined: MTD, LD16, LD84 and LD100.
(§2) In the experiment, clinically healthy animals were used, which were kept in the same conditions with a 12-h light and free access to water and food. Each experimental group included six animals. […] Control animals received 0.9% NaCl solution. Animals were monitored continuously for 4 h on the first day after administration of the test compounds. […] Calculation of toxic doses was performed using probit analysis.

[5] = tested on: BDF1 mice; assay: as above; type: in vivo
Description: as §1, §2

[6] = tested on: murine leukemia P388 in BDF1 mice; assay: Antitumor activity in vivo, transplanted murine leukemia P388
Description: The study of the antitumor activity of compounds 4e and 4g was carried out using transplanted experimental murine tumor leukemia P388. In the experiment, concentrations from 1.25 to 10 mg/kg were used for 4e, and from 0.625 to 5 mg/kg for 4g. The concentrations used correspond to values from 1/8 MPD to MPD for the studied compounds.
Studies of antitumor activity were carried out on hybrid male mice BDF1 [DBA2×C57Bl6] weighing from 22 to 24 g. In the experiment, clinically healthy animals were used, which were kept in the same conditions with a 12-h light and free access to water and food. Each experimental group included six animals. Transplantation of mouse leukemia P388 was performed intraperitoneally with a concentration of 10^6 cells in 200μLof 0.9% NaCl solution per animal. Compounds 4e and 4g were dissolved in 0.9% NaCl solution and administered intraperitoneally once in the dose range 1.25–10 mg/kg and 0.625–5 mg/kg, respectively. The compounds were administered the next day after tumor cell transplantation. Control animals received 0.9% NaCl solution. The effectiveness of therapy was assessed by the increase in the average life span (ILS, %) of the animals.

[7] = single intraperitoneal administration, doses given in mg/kg, probit analysis

O=[N+]([O-])c1c(Cl)cc2c(no[n+]2[O-])c1NCCCN1CCOCC1 [4e, 6-chloro-4-(3-(morpholino-4-ium)propylamino)-5-nitrobenzo[c][1,2,5]oxadiazole 1-oxide chloride]
germination energy ([1]; 10 mmol): 85.7%
laboratory germination ([1]; 10 mmol): 85.7%
sowing qualities of seeds compared with control ([1]; 20 mmol): higher than control
germination energy ([1]; 20 mmol): 96%
laboratory germination ([1]; 20 mmol): 98%
germination energy ([1]; 40 mmol): 94%
laboratory germination ([1]; 40 mmol): 99%
germination energy ([2]; 10 mmol): 38%
laboratory germination ([2]; 10 mmol): 38%
sowing qualities of seeds compared with control ([2]; 20 mmol): better results than the control
germination energy ([2]; 20 mmol): 98.5%
laboratory germination ([2]; 20 mmol): 99%
sowing qualities of seeds compared with control ([2]; 40 mmol): better results than the control
germination energy ([2]; 40 mmol): 99%
laboratory germination ([2]; 40 mmol): 99%
IC50 ([3]; HEK293, 24 h): 99 ± 2.09 µM
IC50 ([3]; HEK293, 72 h): 86.5 ± 5.75 µM
MTD at 14 days ([4]; doses given in mg/kg): 10 mg/kg
LD50 at 14 days ([4]; probit analysis): 22 ± 1.33 mg/kg
toxicity class from acute toxicity study ([5]; single i.p.): highly toxic
Body Weight ([5]; single i.p. 10 mg/kg, 0 Day, control 21.55 ± 0.28): 20.25 ± 0.39 g
Body Weight ([5]; single i.p. 10 mg/kg, 1 Day, control 21.43 ± 0.56): 20.39 ± 0.47 g
Body Weight ([5]; single i.p. 10 mg/kg, 2 Days, control 21.67 ± 0.77): 20.51 ± 0.40 g
Body Weight ([5]; single i.p. 10 mg/kg, 3 Days, control 21.99 ± 0.79): 20.88 ± 0.31 g
Body Weight ([5]; single i.p. 10 mg/kg, 7 Days, control 22.80 ± 0.44): 21.58 ± 0.51 g
Body Weight ([5]; single i.p. 10 mg/kg, 14 Days, control 23.96 ± 0.68): 22.12 ± 0.62 g
Body Weight ([5]; single i.p. 15 mg/kg, 0 Day, control 21.55 ± 0.28): 21.48 ± 0.47 g
Body Weight ([5]; single i.p. 15 mg/kg, 1 Day, control 21.43 ± 0.56): 21.45 ± 0.51 g
Body Weight ([5]; single i.p. 15 mg/kg, 2 Days, control 21.67 ± 0.77): 21.56 ± 0.49 g
Body Weight ([5]; single i.p. 15 mg/kg, 3 Days, control 21.99 ± 0.79): 21.62 ± 0.59 g
Body Weight ([5]; single i.p. 15 mg/kg, 7 Days, control 22.80 ± 0.44): 22.02 ± 0.47 g
Body Weight ([5]; single i.p. 15 mg/kg, 14 Days, control 23.96 ± 0.68): 22.66 ± 0.38 g
Body Weight ([5]; single i.p. 20 mg/kg, 0 Day, control 21.55 ± 0.28): 21.45 ± 0.52 g
Body Weight ([5]; single i.p. 20 mg/kg, 1 Day, control 21.43 ± 0.56): 21.44 ± 0.71 g
Body Weight ([5]; single i.p. 20 mg/kg, 2 Days, control 21.67 ± 0.77): 21.88 ± 0.81 g
Body Weight ([5]; single i.p. 20 mg/kg, 3 Days, control 21.99 ± 0.79): 22.02 ± 0.74 g
Body Weight ([5]; single i.p. 20 mg/kg, 7 Days, control 22.80 ± 0.44): 22.74 ± 0.58 g
Body Weight ([5]; single i.p. 20 mg/kg, 14 Days, control 23.96 ± 0.68): 23.01 ± 0.65 g
Body Weight ([5]; single i.p. 25 mg/kg, 0 Day, control 21.55 ± 0.28): 22.27 ± 0.29 g
Body Weight ([5]; single i.p. 25 mg/kg, 1 Day, control 21.43 ± 0.56): 21.98 g
Body Weight ([5]; single i.p. 25 mg/kg, 2 Days, control 21.67 ± 0.77): 21.81 g
Body Weight ([5]; single i.p. 25 mg/kg, 3 Days, control 21.99 ± 0.79): 21.89 g
Body Weight ([5]; single i.p. 25 mg/kg, 7 Days, control 22.80 ± 0.44): 22.15 g
Body Weight ([5]; single i.p. 25 mg/kg, 14 Days, control 23.96 ± 0.68): 22.74 g
Body Weight ([5]; single i.p. 30 mg/kg, 0 Day, control 21.55 ± 0.28): 21.92 ± 0.13 g
time after administration at which death of animals began ([5]; single i.p., doses of 15–30 mg/kg): 5 to 30 min
LD100 ([5]; single intraperitoneal administration, doses given in mg/kg): 30
LD16 [5, 7]: 18.2
LD84 [5, 7]: 24.6
increase in the average lifespan (ILS) ([6]; single i.p. injection, 2.5 mg/kg): 28%
lifespan of animals ([6]; single i.p., doses from 1/8 MPD to MPD, control animals all die by day 11): up to 16 days
